Assays:
HI-MXT tumours = assay: In vivo antitumour activity, hormone-insensitive mouse mammary carcinoma MXT (HI-MXT), tumour growth; conditions: 5 mg/kg intraperitoneally; for Tumour area (expressed as %): decrease (−) or increase (+) in HI-MXT tumour area vs control on the 21st day after grafting, 6 administrations
Procedure: The tests were carried out on models of:
hormone-insensitive mouse mammary carcinoma MXT (HI-MXT),
The model of mouse mammary adenocarcinoma MXT of Watson C. et al. (Cancer Res., 1977; […]: 3344-48), grafted onto B6D2F1/Jico mice aged from 4 to 6 weeks, is derived from the mammary gland milk ducts. Initially hormone-sensitive (HS-MXT model), the differentiated tumour develops in the direction of an undifferentiated hormone-insensitive tumour (HI-MXT model). […] This is the case, for example, with cyclophosphamide, etoposide or adriamycin.
When the MTD value of a product was determined, its in vivo antitumour activity was characterized at the MTD/2, MTD/4 and MTD/8 doses on the models of mammary adenocarcinoma of mouse origin HS-MXT and of mouse mammary carcinoma HI-MXT and on the model of subcutaneous lymphoma L 1210.
In all the examples presented below, whatever the model, the control condition is represented by a batch of 9 or 15 mice to which is administered, for 3 consecutive weeks and at the rate of 3 administrations (Monday, Wednesday and Friday) per week, a volume of 0.2 ml of physiological saline comprising the solvent used to dissolve the various compounds of formula (I) and (Ia) used.
i)—The tumour growth was evaluated by measuring twice weekly (Monday and Friday) the area of the grafted HS-MXT, HI-MXT or L 1210 tumours. This area is calculated by multiplying the value of the two greatest perpendicular axes of the tumour. The value of these axes is measured using a sliding caliper.
The influence of the two products CRL 8293 and CRL 8294 on the growth of HI-MXT tumours will be presented below by way of example. Each batch of mice grafted with HI-MXT tumours relating to a given experimental condition comprises 15 animals.
The product CRL 8293 is administered intraperitoneally. The first injection of the product is carried out on the seventh day postgrafting (D7) at the rate of 3 injections per week (Monday, Wednesday and Friday) for 3 consecutive weeks and at a dose of 5 mg/kg.
The product CRL 8294 is administered intraperitoneally. The first injection of the product is carried out on the seventh day postgrafting (D7) at the rate of 3 injections per week (Monday, Wednesday and Friday) for 3 consecutive weeks and at a dose of 5 mg/kg.
The decreases (−) or the increases (+) in the area of the HI-MXT tumours induced with treatments 1 and 2 with respect to the control condition on the 21st day after the tumour grafting, i.e. after 6 administrations of the product CRL 8293 or of the product CRL 8294, are shown, as percentage, in the following Table II. 100% of the control animals are still alive on the 21st day postgrafting.

[1] = system: 12 human cancer cell lines (U-373MG, U-87MG, SW1088, A549, A-427, HCT-15, LoVo, T-47D, MCF7, J82, T24, PC-3); assay: Cytotoxic activity on tumour cell lines in culture (MTT test); assay type: cell-based; conditions: mean IC50 calculated from the individual cytotoxic activities on each of the 12 tumour lines, 72 hours incubation
Procedure: 1—Cytotoxic Activity on Tumour Cell Lines in Culture (MTT Test)
The influence of the compounds of formula (I) and of (Ia) on tumour cells was evaluated using the MTT calorimetric test (T. Mosman, J. Immunol. Methods, 1983; 65: 55-63, J. Carmichael et al., Cancer Res. 1987; 47: 936-942).
The principle of the MTT test is based on the mitochondrial reduction by metabolically active alive cells of the yellow-coloured product MTT (3-(4,5-dimethylthiazol-2-yl)-2,5-diphenyltetrazolium bromide) to a blue-coloured product, formazan. The amount of formazan thus obtained is directly proportional to the amount of live cells present in the culture well or wells. This amount of formazan is measured by spectrophotometry.
The cell lines are maintained in monolayer culture at 37° C. in stoppered culture dishes containing 25 MM HEPES MEM (Minimum Essential Medium) base medium. This medium is well suited to the growth of a range of varied diploid or primary mammalian cells. This medium is subsequently supplemented: […]
with an amount of 5% of FCS (Foetal Calf Serum) decomplemented at 56° C. for 1 hour, with 0.6 mg/ml of L-glutamine, with 200 IU/ml of penicillin, with 200 μg/ml of streptomycin, with 0.1 mg/ml of gentamicin.
The 12 human cancer cell lines which were used were obtained from the American Type Culture Collection (ATCC, Rockville, Md., USA). These 12 cell lines are:
U-373MG (ATCC code: HTB-17) and U-87MG (ATCC code: HTB-14), which are two glioblastomas, SW1088 (ATCC code: HTB-12) which is an astrocytoma, A549 (ATCC code: CCL-185) and A-427 (ATCC code: HTB-53), which are two non-small-cell lung cancers, HCT-15 (ATCC code: CCL-225) and LoVo (ATCC code: CCL-229), which are two colorectal cancers, T-47D (ATCC code: HTB-133) and MCF7 (ATCC code: HTB-22), which are two breast cancers, J82 (ATCC code: HTB-1) and T24 (ATCC code: […]), which are two bladder cancers, PC-3 (ATCC code: CRL-1435), which is a prostate cancer.
Experimentally: 100 μl of a cell suspension comprising 20 000 to 50 000 (depending on the cell type used) cells/ml of culture medium are inoculated in flat-bottomed 96-well multi-well plates and are incubated at 37° C. under an atmosphere comprising 5% of CO2 and 70% humidity. After incubating for 24 hours, the culture medium is replaced with 100 μl of fresh medium comprising either the various test compounds at concentrations varying from 10^−5 to 10^−10 M of the solvent used to dissolve the -test products (control condition). After incubating for 72 hours under the above conditions, the culture medium is replaced with 100 μl of a yellowish solution of MTT dissolved, in a proportion of 1 mg/ml, in RPMI 1640. The microplates are reincubated for 3 hours at 37° C. and then centrifuged for 10 minutes at 400 g. The yellowish MTT solution is removed and the blue formazan crystals formed at the cellular level are dissolved in 100 μl of DMSO. The microplates are subsequently agitated for 5 minutes. The intensity of the resulting blue coloration, and thus of the conversion of the yellow MTT product into blue formazan by the cells which are still alive at the end of the experiment, is quantified by spectrophotometry using a device of DYNATECH IMOASSAY SYSTEM type at wavelengths of 570 nm and 630 nm corresponding respectively to the maximum absorption wavelengths of formazan and to the background noise. Software built into the spectrophotometer calculates the mean optical density values and the standard deviation (Std. Dev.) and standard error of the mean (SEM) values.
The inhibitory activity on the cell growth of the compounds of formula (I) and (Ia) on the various tumour cell lines was measured in comparison with that of the natural product.

Row | Structure (SMILES) | growth of the HI-MXT tumours (in words) (HI-MXT tumours) | Tumour area (expressed as %) (HI-MXT tumours) | IC50 ([1]; Homo sapiens) | IC50 [1]
1 | O=C1c2cccnc2-c2nccc3ccnc1c23 [CRL 8293, 7H-Pyrido[4,3,2-de][1,10]phenanthroline-7-one] | significant decrease | −33% | 1250 nM | –
2 | O=C1c2ncccc2-c2nccc3ccnc1c23 [CRL 8294, 7H-Pyrido[4,3,2-de][1,7phenanthroline-7-one] | significant decrease | −36% | – | 1450 nM
